Experiments:
[1] = system: Salmonella typhimurium; test: Survival of mice after intraperitoneal infection with Salmonella typhimurium (Beispiel B); assay type: in vivo, Mäuse; conditions: 10 mg/kg per os once daily on 4 consecutive days, starting 1 day after i.p. infection with 7 x 10^5 colony-forming units
Description: Substanzen, die die körpereigene Abwehr (Immunsystem) während einer Infektion stimulieren, sind sowohl für die Human- wie für die Veterinärmedizin von großem Interesse, da viele Infektionen trotz guter chemotherapeutischer Möglichkeiten ohne Unterstützung durch körpereigene Abwehrmechanismen persistieren. Dies kann zum erneuten Auftreten von Symptomen (Rezidiv) nach dem überstehen der Ersterkrankung und damit zu chronisch rezidivierenden Krankheiten führen. Unter den durch Bakterien bedingten Erkrankungen sind es besonders Infektionen mit sogenannten fakultativ intrazellulären Bakterien, die Probleme darstellen. Darunter versteht man Bakterien, die sich nach Aufnahme in die Makrophagen (Phagozytose) weiter vermehren. Es bedarf erst einer weiteren Stimulierung der Makrophagen über das Immunsystem, um diese intrazellulären Bakterien abzutöten. Ein Experimentalmodell für eine solche Erkrankung stellt die Infektion der Maus mit Salmonella typhimurium dar. Nach Inokulation der Mäuse mit diesem humanpathogenen Bakterium kommt es in Abhängigkeit von der Infektionsdosis zu einem subakut bis chronischen Krankheitsverlauf, bei dem die Tiere erst nach 4 bis 7 Tagen abzusterben beginnen. Während dieses Zeitraumes besteht die Möglichkeit, das Immunsystem durch Substanzen zu beeinflussen. Bei den meisten anderen tierexperimentellen Infektionen, kommt es zu einem sehr schnellen Absterben der Tiere innerhalb von 1 bis 2 Tagen. Damit besteht keine Möglichkeit mehr, die Abwehr während der Infektion zu stimulieren. 1-[3-Methyl-4-(4'-trifluormethylthio-phenoxy)-phenyl]-3-methyl-1,3,5-triazin-trion wurde Mäusen an 4 aufeinanderfolgenden Tagen einmal täglich per os in unterschiedlichen Dosen verabfolgt, beginnend 1 Tag nach intraperitonealer Infektion mit 7 x 10^5 Kolonien-bildenden Einheiten von Salmonella typhimurium. Diese Infektionsdosis führt bei unbehandelten Tieren innerhalb von 4 bis 6 Tagen zu einem Absterben von 70 bis 90 % der Tiere. […]

[2] = system: Salmonella typhimurium; test: In vitro direct effect on growth of Salmonella typhimurium; assay type: cell-based

SMILES: Cc1cc(-n2c(=O)[nH]c(=O)n(C)c2=O)ccc1Oc1ccc(SC(F)(F)F)cc1 [1-[3-Methyl-4-(4'-trifluormethylthio-phenoxy)-phenyl]-3-methyl-1,3,5-triazin-2,4,6-(1H, 3H, 5H)-trion]
- Überlebende Mäuse (%) an folgenden Tagen nach Infektion: 6. Tag ([1]; day 6 after infection): 90%
- Überlebende Mäuse (%) an folgenden Tagen nach Infektion: 12. Tag ([1]; day 12 after infection): 60%
- Überlebende Mäuse (%) an folgenden Tagen nach Infektion: 18. Tag ([1]; day 18 after infection): 60%
- direkter Effekt auf die Vermehrung von Salmonella typhimurium [2]: keinen direkten Effekt

— patent EP0158075A1, “Immuno stimulating composition” (BAYER AG, priority 1984, dated 1985)
